Source: patent US6545006B1, “Process for obtaining L-dihydroorotic acid and use thereof” (Aventis Pharma Deutschland GmbH, priority 1997, dated 2003)

Columns and labels:
Assay type in all cases: physicochemical
[1] = Stability of L-DHO for 18 h at 14° C. in human serum; conditions: for Residue (%) / concentration 1 5 μg/ml / Concentration 2 20 μg/ml: Human serum, 14° C.
Method: (§1) In order to simulate the conditions of the samples when they are waiting in the autosampler for the actual analysis the stability during 18 h at 14° C. was determined. For that reason the cell lysates were spiked and then treated with 30 μl 6 M KOH/100 μl lysate before the start of the analysis. Correspondingly, the serum samples were spiked and then deproteinized as described in 1.5.2. […] In serum samples the analyte is stable under these conditions. For these reasons only so many HPLC samples were prepared that the maximal length of stay in the autosampler was less than 18 h.

[2] = Stability of L-DHO standard stock solution; conditions: 1 mg L-DHO in 1 ml water, frozen at −20° C.
Method: (§2) A standard stock solution was prepared by dissolving 1 mg L-DHO in 1 ml water. Aliquots of 400 μl were frozen at −20° C. Stability of these solutions was guaranteed for at least 4 weeks. Defined amounts of the stock solution were added to the cell lysates and to human or rat serum and assayed to evaluate the linearity between the increase of the signal and the spiked L-DHO concentration. The precision and the accuracy of the method were investigated by using quality control (QC) samples with an L-DHO content in the low, the middle and the high concentration range of the signal/concentration linearity curve.

[3] = Stability of L-DHO in rat serum at −20° C.; conditions: for Residue (%) / concentration 1 5 μg/ml / Concentration 2 20 μg/ml: Rat serum
Method: as §2
(§3) In order to reduce the protein content […] serum were added to a Microcon filter (10 000 D, model 10, code 42407, Amicon) and centrifuged for 30 min at 13 000 rounds per minute (rpm). The flow through consisted of about 150 μl and contains the analyte L-DHO. From this liquid 20 μl were used for HPLC analysis.
(§4) L-DHO was stable under the above mentioned conditions in Jurkat cells over a period of at least 4 weeks. […] For these reasons it can be stated only that in rat and human serum samples L-DHO is definitely stable only for at least 1 week.

[4] = Stability of L-DHO in Jurkat cell lysates at −20° C.; conditions: Jurkat cells
Method: as §2
Cells were suspended in a defined medium volume and cell density of samples was determined via vital microscopy using Eosin. About 10×10^6 cells were removed, pelleted by 5 minute-centrifugation at 350×g and the supernatant was discarded. Lysis of the cells was done by resuspending the cell pellet in 500 μl 1.2 M HClO4. This mixture was transferred in 2.0 ml Eppendorf safe-lock caps and the protein was precipitated by 2 minutes high speed centrifugation. The supernatant was completely removed, transferred in glass vials and after addition of 500 μl chloroform thoroughly mixed by 2 minutes vortexing. Cellular lipids were extracted by chloroform following 10 minutes centrifugation (1502 g) at 10° C. The purified supernatant was collected in 2 ml Eppendorf-caps and stored at −20° C. until further used. For the HPLC analysis 100 μl of this supernatant were neutralized with 30 μl 6 M KOH. After shaking for about 5 sec the samples were stored on ice for 30 min. Thereafter they were centrifuged for 5 min at 15 000 rpm. From the clear supernatant 20 μl were used for the HPLC analysis.
as §4

[5] = Stability of L-DHO for 18 h at 14° C. in rat serum; conditions: for concentration 1 5 μg/ml / Residue (%) / Concentration 2 20 μg/ml: Rat serum, 14° C.
Method: as §1

[6] = Stability of L-DHO for 18 h at 14° C. in Jurkat cell lysates; conditions: for Residue (%) / concentration 1 20 μg/ml / Concentration 2 100 μg/ml: Jurkat cells, 14° C.
Method: as §1

[7] = Stability of L-DHO in human serum at −20° C.; conditions: for Residue (%) / concentration 1 5 μg/ml / Concentration 2 20 μg/ml: Human serum
Method: as §2, §3, §4

## O=C1C[C@@H](C(=O)O)NC(=O)N1 [L-DHO, L-dihydroorotic acid]
[1]; 5 μg/ml, 0 h
  Residue (%): 100%
  concentration 1 5 μg/ml: 3340 ng/mL
[1]; 5 μg/ml, 18 h
  Residue (%): 100.9%
  concentration 1 5 μg/ml: 3370 ng/mL
[1]; 20 μg/ml, 0 h
  Concentration 2 20 μg/ml: 18780 ng/mL
  Residue (%): 100%
[1]; 20 μg/ml, 18 h
  Concentration 2 20 μg/ml: 22090 ng/mL
  Residue (%): 117.6%
[1]; human serum, 18 h at 14° C.
  stability of the analyte in serum samples: stable
[2]
  Stability of standard stock solution: at least 4 weeks
[3]; 5 μg/ml, Time 0 (h)
  Residue (%): 100%
  concentration 1 5 μg/ml: 4300 ng/mL
[3]; 5 μg/ml, Time 7 (h)
  Residue (%): 105.1%
  concentration 1 5 μg/ml: 4520 ng/mL
[3]; 5 μg/ml, Time 14 (h)
  Residue (%): 111.9%
  concentration 1 5 μg/ml: 4810 ng/mL
[3]; 5 μg/ml, Time 21 (h)
  Residue (%): 129.1%
  concentration 1 5 μg/ml: 5550 ng/mL
[3]; 20 μg/ml, Time 0 (h)
  Concentration 2 20 μg/ml: 19940 ng/mL
  Residue (%): 100%
[3]; 20 μg/ml, Time 7 (h)
  Concentration 2 20 μg/ml: 19620 ng/mL
  Residue (%): 98.4%
[3]; 20 μg/ml, Time 14 (h)
  Concentration 2 20 μg/ml: 20930 ng/mL
  Residue (%): 105.0%
[3]; 20 μg/ml, Time 21 (h)
  Concentration 2 20 μg/ml: 22330 ng/mL
  Residue (%): 112.2%
[3]; rat serum
  period over which L-DHO is definitely stable: at least 1 week
[4]; 20 μg/ml, 0 days
  Residue (%): 100%
  concentration 1 20 μg/ml: 19340 ng/mL
[4]; 20 μg/ml, 7 days
  Residue (%): 99.7%
  concentration 1 20 μg/ml: 19280 ng/mL
[4]; 20 μg/ml, 29 days
  Residue (%): 103.3%
  concentration 1 20 μg/ml: 19980 ng/mL
[4]; 100 μg/ml, 0 days
  Concentration 2 100 μg/ml: 100050 ng/mL
  Residue (%): 100%
[4]; 100 μg/ml, 7 days
  Concentration 2 100 μg/ml: 99090 ng/mL
  Residue (%): 99.0%
[4]; 100 μg/ml, 14 days
  Concentration 2 100 μg/ml: 115320 ng/mL
  Residue (%): 115.3%
[4]; 100 μg/ml, 29 days
  Concentration 2 100 μg/ml: 99350 ng/mL
  Residue (%): 99.3%
[4]; 2-3 freezing/thawing cycles
  period over which L-DHO was stable: at least 4 weeks
[5]; 5 μg/ml, 0 h
  concentration 1 5 μg/ml: 4610 ng/mL
[5]; 5 μg/ml, 18 h
  Residue (%): 107.6%
  concentration 1 5 μg/ml: 4960 ng/mL
[5]; 20 μg/ml, 0 h
  Concentration 2 20 μg/ml: 19990 ng/mL
  Residue (%): 100%
[5]; 20 μg/ml, 18 h
  Concentration 2 20 μg/ml: 20530 ng/mL
  Residue (%): 102.7%
[5]; rat serum, 18 h at 14° C.
  stability of the analyte in serum samples: stable
[6]; 20 μg/ml, 0 h
  Residue (%): 100%
  concentration 1 20 μg/ml: 19960 ng/mL
[6]; 20 μg/ml, 18 h
  Residue (%): 93.2%
  concentration 1 20 μg/ml: 18600 ng/mL
[6]; 100 μg/ml, 0 h
  Concentration 2 100 μg/ml: 100020 ng/mL
  Residue (%): 100%
[6]; 100 μg/ml, 18 h
  Concentration 2 100 μg/ml: 97430 ng/mL
  Residue (%): 97.4%
[6]; cells, 18 h at 14° C.
  reduction of L-DHO content: ≤ 7%
[7]; 5 μg/ml, Time 0 (h)
  Residue (%): 100%
  concentration 1 5 μg/ml: 4670 ng/mL
[7]; 5 μg/ml, Time 8 (h)
  Residue (%): 103.0%
  concentration 1 5 μg/ml: 4810 ng/mL
[7]; 5 μg/ml, Time 65 (h)
  Residue (%): 104.3%
  concentration 1 5 μg/ml: 4870 ng/mL
[7]; 20 μg/ml, Time 0 (h)
  Concentration 2 20 μg/ml: 20220 ng/mL
  Residue (%): 100%
[7]; 20 μg/ml, Time 8 (h)
  Concentration 2 20 μg/ml: 20380 ng/mL
  Residue (%): 100.8%
[7]; 20 μg/ml, Time 65 (h)
  Concentration 2 20 μg/ml: 23200 ng/mL
  Residue (%): 114.7%
[7]; human serum
  period over which L-DHO is definitely stable: at least 1 week
